Reference: PMC5406237 (Chemical research in toxicology, 2010)
pKi: −log10 of the molar value. Read-outs that look alike come from different tables or passages of the source.

Legend:
plasma proteins = conditions: cited from earlier work
[1] = biological target: CYP2C9 present in the human liver microsomes (Homo sapiens, UniProt P11712); format: biochemical; conditions: for Ki fold above the Km for S-warfarin: human liver microsomes, marker Km
recombinant CYP2C9*1 [2] = biological target: T1, recombinant CYP2C9*1 (Homo sapiens, UniProt P11712); assay: Steady-state inhibition of S-warfarin metabolism by recombinant CYP2C9; format: biochemical
Recombinant CYP2C9 = Recombinant CYP2C9 (Homo sapiens, UniProt P11712); assay: P450-Glo IC50 screen of recombinant CYP2C9 activity; format: biochemical; conditions: relative to racemic warfarin IC50
Sequence of Recombinant CYP2C9 (P11712 whole entry): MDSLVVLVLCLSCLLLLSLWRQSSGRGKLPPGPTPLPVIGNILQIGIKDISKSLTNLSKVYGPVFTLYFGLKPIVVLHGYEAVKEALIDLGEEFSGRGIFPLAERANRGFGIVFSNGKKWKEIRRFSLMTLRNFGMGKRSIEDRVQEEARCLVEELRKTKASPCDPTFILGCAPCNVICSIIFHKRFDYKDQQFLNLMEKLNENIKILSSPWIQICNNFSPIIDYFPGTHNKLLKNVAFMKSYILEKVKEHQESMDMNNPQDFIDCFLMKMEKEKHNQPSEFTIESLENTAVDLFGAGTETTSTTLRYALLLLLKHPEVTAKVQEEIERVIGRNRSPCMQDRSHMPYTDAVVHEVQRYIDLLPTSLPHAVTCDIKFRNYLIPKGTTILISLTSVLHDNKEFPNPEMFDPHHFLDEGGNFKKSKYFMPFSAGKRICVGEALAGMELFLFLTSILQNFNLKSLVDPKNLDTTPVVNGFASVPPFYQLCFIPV

CYP2C9 = conditions: binds and inhibits CYP2C9, not metabolized; cited from earlier work
recombinant CYP2C9*1 [3] = biological target: T1, recombinant CYP2C9*1; assay: Uninhibited steady-state metabolism of S-warfarin by recombinant CYP2C9; conditions: S-7-hydroxywarfarin formation
[4] = biological target: T2, pooled human liver microsomes (Homo sapiens, UniProt P11712); conditions: 7-hydroxywarfarin formation
T2 sequence (P11712 whole entry): as above

[5] = biological target: T2, pooled human liver microsomes
recombinant CYP2C9*1 [6] = biological target: T1, recombinant CYP2C9*1
[7] = 2.0 mg/mL microsomal protein, marker 7-hydroxywarfarin formation
[8] = results based on S-6-hydroxywarfarin formation

Sequence of CYP2C9 present in the human liver microsomes (P11712 whole entry): as above

**Q.** Which “fold lower affinity for plasma proteins than warfarin” value (plasma proteins) does the source give for `CC(=O)CC(c1ccccc1)c1c(O)c2cccc(O)c2oc1=O` (centres unmarked) [8OHWAR, 8-hydroxywarfarin] here?
**A.** Its value is 3- to 4 fold.

**Q.** What about the mechanism [1, 7] of the same compound?
**A.** The mechanism was “competitive”.

**Q.** And the “Ki fold above the Km for S-warfarin” value [1]?
**A.** Its value is “approximately 3 fold”.

**Q.** Which results are given for `CC(=O)CC(c1ccccc1)c1c(O)c2cc(O)ccc2oc1=O` (centres unmarked) [6OHWAR, 6-hydroxywarfarin]?
**A.** fold lower affinity for plasma proteins than warfarin (plasma proteins): 3- to 4 fold; inhibition of S-warfarin metabolism (recombinant CYP2C9*1 [2]; up to 170 μM inhibitor): no inhibition; mechanism [1, 7]: competitive; Ki fold above the Km for S-warfarin [1]: approximately 32 fold

**Q.** What does the source list for `CC(=O)CC(c1ccc(O)cc1)c1c(O)c2ccccc2oc1=O` (centres unmarked) [4′OHWAR, 4′-hydroxywarfarin]?
**A.** affinity for human plasma albumin (plasma proteins): comparable to that of warfarin; mechanism [1, 7]: competitive; Ki fold above the Km for S-warfarin [1]: approximately 3 fold

**Q.** For `CC(=O)CC(c1ccccc1)c1c(O)c2ccc(O)cc2oc1=O` (centres unmarked) [7OHWAR, 7-hydroxywarfarin], which “fold lower affinity for plasma proteins than warfarin” value (plasma proteins) is on record?
**A.** Its value is 3- to 4 fold.

**Q.** What about the mechanism (recombinant CYP2C9*1 [2]; [8]) of the same compound?
**A.** The mechanism was “competitive”.

**Q.** What about the “IC50 fold higher than that observed for warfarin” value (Recombinant CYP2C9) of the same compound?
**A.** Its value is “approximately 8 fold”.

**Q.** And the “Ki fold above the Km for S-warfarin” value [1]?
**A.** The value was 8.5 fold.

**Q.** What about the mechanism [1, 8] of the same compound?
**A.** Its mechanism is “competitive”.

**Q.** Which “affinity fold higher than S-warfarin” value (recombinant CYP2C9*1 [2]; abstract statement) does the source give for `CC(=O)C(O)C(c1ccccc1)c1c(O)c2ccccc2oc1=O` (centres unmarked) [10OHWAR, 10-hydroxywarfarin] here?
**A.** The value was “approximately 3 fold”.

**Q.** What about the “Ki fold lower than the Km for S-warfarin” value (recombinant CYP2C9*1 [2]; recombinant CYP2C9) of the same compound?
**A.** The value was “approximately 2.5 fold”.

**Q.** And the “Ki fold lower than the observed microsomal Km for S-warfarin” value [1]?
**A.** The value was 2.4 fold.

**Q.** And the mechanism [1, 7]?
**A.** The mechanism was “competitive”.

**Q.** Which Km (recombinant CYP2C9*1 [3]) does the source give for `CC(=O)C[C@@H](c1ccccc1)c1c(O)c2ccccc2oc1=O` [S-warfarin] here?
**A.** The Km was 2.3 µM.

**Q.** And the Vmax (recombinant CYP2C9*1 [3])?
**A.** The Vmax was 68 pmol/min/nmol P450.

**Q.** What about the Km [4] of the same compound?
**A.** The Km was 5.2 µM.

**Q.** What about the Vmax [4] of the same compound?
**A.** The Vmax was 173 pmol/min/mg protein.

**Q.** And the Km [5]?
**A.** Its Km is 7.5 µM.

**Q.** And the Km (recombinant CYP2C9*1 [6])?
**A.** Its Km is 3.3 µM.
